The compounds below were run against T1, human orexin-2 (hOX2) receptor (Homo sapiens, UniProt O43614) (assay: Intracellular Ca2+ mobilization assay (FLIPR), CHO(dHFr-) cells expressing hOX2, orexin-A as agonist). Conditions: antagonist Kb=IC50/(1+[A]/EC50); orexin-A at EC80; CHO(dHFr-)-OX2R cells; antagonist applied 25 min before agonist.
T1 construct: expressed in transfected cells
T1 sequence (O43614 1-444): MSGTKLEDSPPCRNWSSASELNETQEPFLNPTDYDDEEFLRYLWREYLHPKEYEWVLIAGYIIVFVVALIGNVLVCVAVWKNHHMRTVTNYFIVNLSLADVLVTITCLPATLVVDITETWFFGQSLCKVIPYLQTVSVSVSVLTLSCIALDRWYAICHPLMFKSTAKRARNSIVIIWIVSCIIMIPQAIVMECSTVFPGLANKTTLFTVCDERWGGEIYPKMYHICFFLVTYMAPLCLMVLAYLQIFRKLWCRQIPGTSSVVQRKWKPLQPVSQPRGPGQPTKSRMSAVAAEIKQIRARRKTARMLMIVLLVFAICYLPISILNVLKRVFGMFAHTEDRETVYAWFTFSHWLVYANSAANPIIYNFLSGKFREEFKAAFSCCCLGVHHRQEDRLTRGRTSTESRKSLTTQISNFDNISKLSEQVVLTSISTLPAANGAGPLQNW
Type: cell-based
Outline: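 Cells loaded with 4 μM Fluo-4 AM (1 h, 37° C) in HBSS/20 mM HEPES/2.5 mM probenecid; antagonists (11 concentrations, 0.0001-10 μM) added 25 min at 37° C before orexin-A at its daily-determined EC80. Peak fluorescence minus basal fitted to Hill equation for IC50; Kb=IC50/(1+[A]/EC50).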

| Structure (SMILES) | Kb [µM] |
| --- | --- |
| O=C(c1ccccc1OC(F)(F)C(F)F)N1CC[C@@H](Nc2cnc3ccccc3n2)C1 [Example 184, [(R)-3-(Quinoxalin-2-ylamino)-pyrrolidin-1-yl]-[2-(1,1,2,2-tetrafluoro-ethoxy)-phenyl]-methanone] | 0.0021 |
| Cc1ccc(C(F)(F)F)c(C(=O)N2CC[C@@H](Nc3cnc4ccccc4n3)C2)c1 [Example 185, (5-Methyl-2-trifluoromethyl-phenyl)-[(R)-3-(quinoxalin-2-ylamino)-pyrrolidin-1-yl]-methanone] | 0.0075 |
| Cc1ccc(C(F)(F)F)c(C(=O)N2CC[C@@H](Nc3ccnc(-c4ccccc4)n3)C2)c1 [Example 200, (5-Methyl-2-trifluoromethyl-phenyl)-[(R)-3-(2-phenyl-pyrimidin-4-ylamino)-pyrrolidin-1-yl]-methanone] | 0.0073 |
| Cc1ccc(C(F)(F)F)c(C(=O)N2CC[C@@H](Nc3nc4cc(F)c(F)cc4s3)C2)c1 [Example 202, [(R)-3-(5,6-Difluoro-benzothiazol-2-ylamino)-pyrrolidin-1-yl]-(5-methyl-2-trifluoromethyl-phenyl)-methanone] | 0.0046 |
| Cc1ccc(C(F)(F)F)c(C(=O)N2CC[C@@H](Nc3cnc4cc(Cl)c(C)cc4n3)C2)c1 [Example 213] | 0.0371 |

Other lines, results leading:

| Kb [µM] | Structure (SMILES) |
| --- | --- |
| 0.027 | O=C(c1ccccc1C(F)(F)F)N1CC[C@@H](Nc2cnc3ccccc3n2)C1 [Example 182, [(R)-3-(Quinoxalin-2-ylamino)-pyrrolidin-1-yl]-(2-trifluoromethyl-phenyl)-methanone] |
| 0.02 | O=C(c1ccccc1OC(F)(F)F)N1CC[C@@H](Nc2cnc3ccccc3n2)C1 [Example 183, [(R)-3-(Quinoxalin-2-ylamino)-pyrrolidin-1-yl]-(2-trifluoromethoxy-phenyl)-methanone] |
| 0.028 | Cc1nc(C(=O)N2CC[C@@H](Nc3cnc4ccccc4n3)C2)c(-c2ccccc2)s1 [Example 189, (2-Methyl-5-phenyl-thiazol-4-yl)-[(R)-3-(quinoxalin-2-ylamino)-pyrrolidin-1-yl]-methanone] |
| 0.0324 | O=C(c1ccccc1OC(F)(F)C(F)F)N1CC[C@@H](Nc2cnc3ccc(Cl)cc3n2)C1 [Example 192, [(R)-3-(7-Chloro-quinoxalin-2-ylamino)-pyrrolidin-1-yl]-[2-(1,1,2,2-tetrafluoro-ethoxy)-phenyl]-methanone] |
| 0.008 | Cc1ccc(C(F)(F)F)c(C(=O)N2CC[C@@H](Nc3nc4c(Cl)cccc4s3)C2)c1 [Example 203] |
| 0.0052 | Cc1ccc(C(F)(F)F)c(C(=O)N2CC[C@@H](Nc3cnc4cc(C(C)(C)C)ccc4n3)C2)c1 [Example 204] |
| 0.0046 | Cc1ccc(C(F)(F)F)c(C(=O)N2CC[C@@H](Nc3cnc4cc(F)ccc4n3)C2)c1 [Example 207] |
| 0.0086 | Cc1ccc(C(F)(F)F)c(C(=O)N2CC[C@@H](Nc3cnc4cc(C)c(Cl)cc4n3)C2)c1 [Example 212] |
